Laboratory results published in patent US20240336654A1, “ANTIMICROBIAL PEPTIDOMIMETICS” (SPEXIS AG, priority 2021, published 2024).
Where a SMILES comes first, the peptide text is derived from it. Bridges are numbered along the chain shown (N, C = ends). [ ]: non-standard residue; d: D form. The star is where a group is joined. Val(Nα-amidino) = CC(C)[C@H](NC(=N)N)C(=O)*; Gly(cPent) = N[C@H](C(=O)O)C1CCCC1; Hyp = O=C(O)[C@@H]1C[C@@H](O)CN1; Pen = CC(C)(S)[C@H](N)C(=O)O; dDab = NCC[C@@H](N)C(=O)O; Orn = NCCC[C@H](N)C(=O)O; Dab = NCC[C@H](N)C(=O)O

Legend:
Type in all cases: cell-based
[1] = system: Klebsiella pneumoniae SSI3010; details: SSI3010
How it was run: (§1)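 MICs were determined by CLSI broth microdilution in cation-adjusted Mueller-Hinton II broth with about 5×10^5 CFU/mL inoculum. Peptides were tested in two-fold serial dilutions with 0.002% polysorbate 80 final. MIC in μg/mL is the lowest concentration with no visible growth after 18-20 h at 35 °C.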

[2] = system: Escherichia coli ATCC 25922; details: ATCC 25922
How it was run: as §1

[3] = system: Escherichia coli MCR-1 Af 45; details: MCR-1 Af 45
How it was run: as §1

[4] = system: human red blood cells (hRBC); details: red cells of human, 1 h, 200 μg/mL
How it was run: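 Peptides at 200 μg/mL incubated 1 h at 37 °C with 20% (v/v) washed human RBC, shaking. Hemolysis from supernatant OD540, expressed as percent of 2.5% Triton X-100 lysis, with PBS as 0%.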

Compound | Klebsiella pneumoniae SSI3010 MIC [1] [µg/mL] | Escherichia coli ATCC 25922 MIC [2] [µg/mL] | Escherichia coli MCR-1 Af45 MIC [3] [µg/mL] | Hemolysis at 0.2 g/L [4] [%]
CC[C@H](C)[C@H](NC(=O)[C@@H]1C[C@@H](O)CN1C(=O)[C@@H](NC(=N)N)C(C)C)C(=O)N[C@@H]1C(=O)N[C@@H](Cc2ccc(O)cc2)C(=O)N[C@@H](CO)C(=O)N[C@@H](CC(N)=O)C(=O)N[C@@H](CCCNC(=N)N)C(=O)N[C@@H](CCN)C(=O)N[C@@H]([C@@H](C)O)C(=O)N[C@H](CCN)C(=O)N[C@@H](CCCN)C(=O)N[C@@H](CCN)C(=O)N[C@@H](CCN)C(=O)N[C@H](C(=O)N[C@@H](Cc2ccc(O)cc2)C(=O)O)CSSC1(C)C [Example 126, Gua-Val-Hyp-Ile-Pen-Tyr-Ser-Asn-Arg-Dab-Thr-^DDab-Orn-Dab-Dab-Cys-Tyr] ({Val(Nα-amidino)}-[Hyp]I[Pen]YSNR[Dab]T[dDab][Orn][Dab][Dab]CY-OH; disulfide 3-14) | 0.125 | 0.125 | 0.03125 | <1
CC[C@H](C)[C@H](NC(=O)[C@@H]1C[C@@H](O)CN1C(=O)[C@@H](NC(=N)N)C(C)C)C(=O)N[C@@H]1C(=O)N[C@@H](Cc2ccc(O)cc2)C(=O)N[C@@H]([C@@H](C)O)C(=O)N[C@@H](CC(N)=O)C(=O)N[C@@H](CCCNC(=N)N)C(=O)N[C@@H](CCN)C(=O)N[C@@H]([C@@H](C)O)C(=O)N[C@H](CCN)C(=O)N[C@@H](CCN)C(=O)N[C@@H](CCN)C(=O)N[C@@H](CO)C(=O)N[C@H](C(=O)N[C@@H](Cc2ccc(O)cc2)C(=O)O)CSSC1(C)C [Example 127, Gua-Val-Hyp-Ile-Pen-Tyr-Thr-Asn-Arg-Dab-Thr-^DDab-Dab-Dab-Ser-Cys-Tyr] ({Val(Nα-amidino)}-[Hyp]I[Pen]YTNR[Dab]T[dDab][Dab][Dab]SCY-OH; disulfide 3-14) | 0.25 | 0.125 | 0.0625 | <1
CC[C@H](C)[C@H](NC(=O)[C@@H]1C[C@@H](O)CN1C(=O)[C@@H](NC(=N)N)C(C)C)C(=O)N[C@@H]1C(=O)N[C@@H](Cc2ccc(O)cc2)C(=O)N[C@@H]([C@@H](C)O)C(=O)N[C@@H](CC(N)=O)C(=O)N[C@@H](CCCNC(=N)N)C(=O)N[C@@H](CCN)C(=O)N[C@@H]([C@@H](C)O)C(=O)N[C@H](CCN)C(=O)N[C@@H](CCCN)C(=O)N[C@@H](CCN)C(=O)N[C@@H](CO)C(=O)N[C@H](C(=O)N[C@@H](Cc2ccc(O)cc2)C(=O)O)CSSC1(C)C [Example 128, Gua-Val-Hyp-Ile-Pen-Tyr-Thr-Asn-Arg-Dab-Thr-^DDab-Orn-Dab-Ser-Cys-Tyr] ({Val(Nα-amidino)}-[Hyp]I[Pen]YTNR[Dab]T[dDab][Orn][Dab]SCY-OH; disulfide 3-14) | 0.25 | 0.125 | 0.125 | <1
CC[C@H](C)[C@H](NC(=O)[C@@H]1C[C@@H](O)CN1C(=O)[C@@H](NC(=N)N)C(C)C)C(=O)N[C@@H]1C(=O)N[C@@H](Cc2ccc(O)cc2)C(=O)N[C@@H](CCN)C(=O)N[C@@H](CC(N)=O)C(=O)N[C@@H](CCCNC(=N)N)C(=O)N[C@@H](CCN)C(=O)N[C@@H]([C@@H](C)O)C(=O)N[C@H](CCN)C(=O)N[C@@H](CCN)C(=O)N[C@@H]([C@@H](C)O)C(=O)N[C@@H](CO)C(=O)N[C@H](C(=O)N[C@@H](Cc2ccc(O)cc2)C(=O)O)CSSC1(C)C [Example 129, Gua-Val-Hyp-Ile-Pen-Tyr-Dab-Asn-Arg-Dab-Thr-^DDab-Dab-Thr-Ser-Cys-Tyr] ({Val(Nα-amidino)}-[Hyp]I[Pen]Y[Dab]NR[Dab]T[dDab][Dab]TSCY-OH; disulfide 3-14) | 0.5 | 0.125 | 0.125 | <1
CC[C@H](C)[C@H](NC(=O)[C@@H]1C[C@@H](O)CN1C(=O)[C@@H](NC(=N)N)C(C)C)C(=O)N[C@@H]1C(=O)N[C@@H](Cc2ccc(O)cc2)C(=O)N[C@@H](CCN)C(=O)N[C@@H](CC(N)=O)C(=O)N[C@@H](CCCNC(=N)N)C(=O)N[C@@H](CCN)C(=O)N[C@@H]([C@@H](C)O)C(=O)N[C@H](CCN)C(=O)N[C@@H](CCCN)C(=O)N[C@@H]([C@@H](C)O)C(=O)N[C@@H](CO)C(=O)N[C@H](C(=O)N[C@@H](Cc2ccc(O)cc2)C(=O)O)CSSC1(C)C [Example 130, Gua-Val-Hyp-Ile-Pen-Tyr-Dab-Asn-Arg-Dab-Thr-^DDab-Orn-Thr-Ser-Cys-Tyr] ({Val(Nα-amidino)}-[Hyp]I[Pen]Y[Dab]NR[Dab]T[dDab][Orn]TSCY-OH; disulfide 3-14) | 0.25 | 0.125 | 0.125 | <1
CC[C@H](C)[C@H](NC(=O)[C@@H]1C[C@@H](O)CN1C(=O)[C@@H](NC(=N)N)C(C)C)C(=O)N[C@@H]1C(=O)N[C@@H](Cc2ccc(O)cc2)C(=O)N[C@@H]([C@@H](C)O)C(=O)N[C@@H](CC(N)=O)C(=O)N[C@@H](CCCNC(=N)N)C(=O)N[C@@H](CCN)C(=O)N[C@@H]([C@@H](C)O)C(=O)N[C@H](CCN)C(=O)N[C@@H](CCCCN)C(=O)N[C@@H](CCN)C(=O)N[C@@H]([C@@H](C)O)C(=O)N[C@H](C(=O)N[C@@H](Cc2ccc(O)cc2)C(=O)O)CSSC1(C)C [Example 131, Gua-Val-Hyp-I-Pen-Tyr-Thr-Asn-Arg-Dab-Thr-^DDab-Lys-Dab-Thr-Cys-Tyr] ({Val(Nα-amidino)}-[Hyp]I[Pen]YTNR[Dab]T[dDab]K[Dab]TCY-OH; disulfide 3-14) | 0.5 | 0.25 | 0.125 | <1
CC[C@H](C)[C@H](NC(=O)[C@@H]1C[C@@H](O)CN1C(=O)[C@@H](NC(=N)N)C(C)C)C(=O)N[C@@H]1C(=O)N[C@@H](Cc2ccc(O)cc2)C(=O)N[C@@H]([C@@H](C)O)C(=O)N[C@@H](CC(N)=O)C(=O)N[C@@H](CCCNC(=N)N)C(=O)N[C@@H](CCN)C(=O)N[C@@H]([C@@H](C)O)C(=O)N[C@H](CCN)C(=O)N[C@@H](CCN)C(=O)N[C@@H](CCN)C(=O)N[C@@H]([C@@H](C)O)C(=O)N[C@H](C(=O)N[C@@H](Cc2ccc(O)cc2)C(=O)O)CSSC1(C)C [Example 132, Gua-Val-Hyp-Ile-Pen-Tyr-Thr-Asn-Arg-Dab-Thr-^DDab-Dab-Dab-Thr-Cys-Tyr] ({Val(Nα-amidino)}-[Hyp]I[Pen]YTNR[Dab]T[dDab][Dab][Dab]TCY-OH; disulfide 3-14) | 0.25 | 0.25 | 0.125 | <1
CC[C@H](C)[C@H](NC(=O)[C@@H]1C[C@@H](O)CN1C(=O)[C@@H](NC(=N)N)C(C)C)C(=O)N[C@@H]1C(=O)N[C@@H](Cc2ccc(O)cc2)C(=O)N[C@@H]([C@@H](C)O)C(=O)N[C@@H](CC(N)=O)C(=O)N[C@@H](CCCNC(=N)N)C(=O)N[C@@H](CCN)C(=O)N[C@@H]([C@@H](C)O)C(=O)N[C@H](CCN)C(=O)N[C@@H](CCCN)C(=O)N[C@@H](CCN)C(=O)N[C@@H]([C@@H](C)O)C(=O)N[C@H](C(=O)N[C@@H](Cc2ccc(O)cc2)C(=O)O)CSSC1(C)C [Example 133, Gua-Val-Hyp-Ile-Pen-Tyr-Thr-Asn-Arg-Dab-Thr-^DDab-Orn-Dab-Thr-Cys-Tyr] ({Val(Nα-amidino)}-[Hyp]I[Pen]YTNR[Dab]T[dDab][Orn][Dab]TCY-OH; disulfide 3-14) | 0.25 | 0.25 | 0.125 | <1
CC(C)[C@H](NC(=N)N)C(=O)N1C[C@H](O)C[C@H]1C(=O)N[C@H](C(=O)N[C@@H]1C(=O)N[C@@H](Cc2ccc(O)cc2)C(=O)N[C@@H]([C@@H](C)O)C(=O)N[C@@H](CC(N)=O)C(=O)N[C@@H](CCCNC(=N)N)C(=O)N[C@@H](CCN)C(=O)N[C@@H]([C@@H](C)O)C(=O)N[C@H](CCN)C(=O)N[C@@H](CO)C(=O)N[C@@H](CCN)C(=O)N[C@@H](CCN)C(=O)N[C@H](C(=O)N[C@@H](Cc2ccc(O)cc2)C(=O)O)CSSC1(C)C)C1CCCC1 [Example 134, Gua-Val-Hyp-Cpg-Pen-Tyr-Thr-Asn-Arg-Dab-Thr-^DDab-Ser-Dab-Dab-Cys-Tyr] ({Val(Nα-amidino)}-[Hyp][Gly(cPent)][Pen]YTNR[Dab]T[dDab]S[Dab][Dab]CY-OH; disulfide 3-14) | 0.25 | 0.125 | 0.125 | <1
CC[C@H](C)[C@H](NC(=O)[C@@H]1C[C@@H](O)CN1C(=O)[C@@H](NC(=N)N)C(C)C)C(=O)N[C@H]1CCNC(=O)CC[C@@H](C(=O)N[C@@H](Cc2ccc(O)cc2)C(=O)O)NC(=O)[C@H](CCN)NC(=O)[C@H](CCN)NC(=O)[C@H](CCN)NC(=O)[C@@H](CCN)NC(=O)[C@H]([C@@H](C)O)NC(=O)[C@H](CCN)NC(=O)[C@H](CCCNC(=N)N)NC(=O)[C@H](CC(N)=O)NC(=O)[C@H]([C@@H](C)O)NC(=O)[C@H](Cc2ccc(O)cc2)NC1=O [Example 135, Gua-Val-Hyp-Ile-Dab-Tyr-Thr-Asn-Arg-Dab-Thr-^DDab-Dab-Dab-Dab-Glu-Tyr] ({Val(Nα-amidino)}-[Hyp]I[Dab]YTNR[Dab]T[dDab][Dab][Dab][Dab]EY-OH; lactam 3-14) | 0.125 | 0.125 | 0.0625 | <1
